ChEMBL document CHEMBL2021783, “Inhibition of cholinesterase activity and amyloid aggregation by berberine-phenyl-benzoheterocyclic and tacrine-phenyl-benzoheterocyclic hybrids” (Bioorg Med Chem, 2012)
The source made the active and inactive calls. The rule behind the calls is not given here.

Legend:
Acetylcholinesterase = Acetylcholinesterase (Electrophorus electricus, UniProt O42275)
Description: Inhibition of electric eel AChE using acetylcholine as substrate by Ellman's method

[1] = Inhibition of amyloid beta (1 to 42) self aggregation at 20 uM after 48 hrs by thioflavin T fluorescence assay
Cholinesterase = Cholinesterase (Equus caballus, UniProt P81908)
Cholinesterase, sequence (P81908 whole entry): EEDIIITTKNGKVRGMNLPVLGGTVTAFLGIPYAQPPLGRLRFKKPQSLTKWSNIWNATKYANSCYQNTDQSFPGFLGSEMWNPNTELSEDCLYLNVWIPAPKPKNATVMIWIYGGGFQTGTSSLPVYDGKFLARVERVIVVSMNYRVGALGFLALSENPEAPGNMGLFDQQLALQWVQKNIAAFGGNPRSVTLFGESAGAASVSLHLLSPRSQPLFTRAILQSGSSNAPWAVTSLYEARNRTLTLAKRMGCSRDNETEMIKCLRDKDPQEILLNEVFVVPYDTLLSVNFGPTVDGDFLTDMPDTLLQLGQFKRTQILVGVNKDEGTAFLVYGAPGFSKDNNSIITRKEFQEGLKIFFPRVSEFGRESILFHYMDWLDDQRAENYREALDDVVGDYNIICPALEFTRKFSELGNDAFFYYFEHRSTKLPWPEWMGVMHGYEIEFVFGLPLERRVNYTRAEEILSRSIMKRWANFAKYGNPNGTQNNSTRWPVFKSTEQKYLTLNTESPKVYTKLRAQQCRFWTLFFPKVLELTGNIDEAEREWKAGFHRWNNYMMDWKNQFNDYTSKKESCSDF
Description: Inhibition of equine serum BuChE using butyrylcholine as substrate by Ellman's method

[2] = target: Acetylcholinesterase (Electrophorus electricus) (UniProt O42275); assay: Mixed-type inhibition of electric eel AChE using acetylcholine as substrate after 15 mins by Lineweaver-Burk plot analysis
Acetylcholinesterase (Electrophorus electricus), sequence (O42275 24-633 limits assumed): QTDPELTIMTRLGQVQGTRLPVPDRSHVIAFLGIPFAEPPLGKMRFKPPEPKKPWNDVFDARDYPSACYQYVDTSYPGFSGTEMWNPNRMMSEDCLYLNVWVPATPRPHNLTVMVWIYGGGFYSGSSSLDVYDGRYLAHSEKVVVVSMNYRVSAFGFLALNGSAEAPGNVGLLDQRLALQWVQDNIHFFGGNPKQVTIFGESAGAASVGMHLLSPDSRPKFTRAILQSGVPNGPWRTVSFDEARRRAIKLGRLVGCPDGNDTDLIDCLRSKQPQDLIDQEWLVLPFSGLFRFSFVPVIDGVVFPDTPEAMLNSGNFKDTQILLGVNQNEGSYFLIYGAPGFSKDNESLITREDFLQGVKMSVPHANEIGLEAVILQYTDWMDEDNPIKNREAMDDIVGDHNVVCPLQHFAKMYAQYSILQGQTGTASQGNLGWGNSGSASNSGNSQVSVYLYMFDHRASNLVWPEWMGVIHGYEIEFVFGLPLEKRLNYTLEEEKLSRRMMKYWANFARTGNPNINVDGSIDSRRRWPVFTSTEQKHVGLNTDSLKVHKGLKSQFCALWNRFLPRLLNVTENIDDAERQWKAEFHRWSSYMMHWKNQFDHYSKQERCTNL

[3] = target: Acetylcholinesterase (Electrophorus electricus) (UniProt O42275); assay: Ratio of IC50 for tarcine to compound for electric eel AChE using acetylcholine as substrate by Ellman's method

Acetylcholinesterase, sequence (O42275 whole entry): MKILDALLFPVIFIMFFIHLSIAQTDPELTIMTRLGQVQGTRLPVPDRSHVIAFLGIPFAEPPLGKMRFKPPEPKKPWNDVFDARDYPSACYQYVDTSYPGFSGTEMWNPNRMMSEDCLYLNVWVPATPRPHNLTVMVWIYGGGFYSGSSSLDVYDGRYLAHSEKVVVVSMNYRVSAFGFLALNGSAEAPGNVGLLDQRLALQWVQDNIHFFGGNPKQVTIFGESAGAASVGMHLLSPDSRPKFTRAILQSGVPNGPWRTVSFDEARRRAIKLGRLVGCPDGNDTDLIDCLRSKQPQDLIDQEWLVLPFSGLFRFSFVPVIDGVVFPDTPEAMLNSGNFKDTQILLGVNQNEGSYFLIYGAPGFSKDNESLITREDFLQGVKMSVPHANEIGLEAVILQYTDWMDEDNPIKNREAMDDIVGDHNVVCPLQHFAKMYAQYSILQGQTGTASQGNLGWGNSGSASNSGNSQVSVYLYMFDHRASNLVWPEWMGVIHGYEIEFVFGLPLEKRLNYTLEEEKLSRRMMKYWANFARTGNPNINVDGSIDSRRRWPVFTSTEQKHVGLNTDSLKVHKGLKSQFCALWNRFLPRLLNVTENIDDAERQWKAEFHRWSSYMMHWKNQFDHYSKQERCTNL

Row | SMILES | IC50 (Acetylcholinesterase) [nM] | inhibition [1] [%] | IC50 (Cholinesterase) [nM] | inhibition [2] | Ratio IC50 [3]
1 | c1ccc2sc(-c3ccc(OCCCCNc4c5c(nc6ccccc46)CCCC5)cc3)nc2c1 | 105 | 37.8 | 186 | – | –
2 | c1ccc2sc(-c3ccc(OCCCNc4c5c(nc6ccccc46)CCCC5)cc3)nc2c1 | 17 | 51.8 | 122 | Active | 18
3 | COc1ccc2cc3[n+](cc2c1OC)CCc1cc2c(cc1-3)OCO2 | – | 36.3 | – | – | –
4 | COc1ccc2cc3[n+](cc2c1OCCCNC(=O)c1cc2ccccc2[nH]1)CCc1cc2c(cc1-3)OCO2 | 976 | 73.5 | 2190 | – | –
5 | COc1ccc2cc3[n+](cc2c1OCCCOc1ccc(-c2nc4ccccc4s2)cc1)CCc1cc2c(cc1-3)OCO2 | 1480 | 79.2 | 587 | – | –
6 | c1ccc2oc(-c3ccc(OCCCCNc4c5c(nc6ccccc46)CCCC5)cc3)nc2c1 | 947 | 33.2 | 207 | – | –
7 | c1ccc2sc(-c3ccc(OCCCCCNc4c5c(nc6ccccc46)CCCC5)cc3)nc2c1 | 40 | 40.7 | 171 | – | –
8 | COc1ccc2cc3[n+](cc2c1OCCCNC(=O)c1cc2ccccc2o1)CCc1cc2c(cc1-3)OCO2 | 1940 | 69.1 | 1540 | – | –
9 | c1ccc2oc(-c3ccc(OCCCNc4c5c(nc6ccccc46)CCCC5)cc3)cc2c1 | 58 | 62.8 | 156 | – | –
10 | COc1ccc2cc3[n+](cc2c1OCCOc1ccc(-c2cc4ccccc4o2)cc1)CCc1cc2c(cc1-3)OCO2 | 3590 | – | – | – | –
11 | COc1ccc2cc3[n+](cc2c1OCCOc1ccc(-c2cc4ccccc4[nH]2)cc1)CCc1cc2c(cc1-3)OCO2 | 1070 | – | – | – | –
12 | COc1ccc2cc3[n+](cc2c1OCCCOc1ccc(-c2cc4ccccc4o2)cc1)CCc1cc2c(cc1-3)OCO2 | 1920 | 84.6 | 990 | – | –
13 | c1ccc2oc(-c3ccc(OCCCNc4c5c(nc6ccccc46)CCCC5)cc3)nc2c1 | 475 | 57.6 | 352 | – | –
14 | COc1ccc2cc3[n+](cc2c1OCCOc1ccc(-c2nc4ccccc4o2)cc1)CCc1cc2c(cc1-3)OCO2 | 3300 | – | – | – | –
15 | COc1ccc2cc3[n+](cc2c1OCCCOc1ccc(-c2cc4ccccc4[nH]2)cc1)CCc1cc2c(cc1-3)OCO2 | 774 | – | 711 | – | –
16 | c1ccc2sc(-c3ccc(OCCCCCCNc4c5c(nc6ccccc46)CCCC5)cc3)nc2c1 | 93 | 41.9 | 82 | – | –
17 | COc1ccc2cc3[n+](cc2c1OCCCOc1ccc(-c2nc4ccccc4o2)cc1)CCc1cc2c(cc1-3)OCO2 | 2120 | – | 639 | – | –
18 | COc1ccc2cc3[n+](cc2c1OCCOc1ccc(-c2nc4ccccc4s2)cc1)CCc1cc2c(cc1-3)OCO2 | 1640 | – | 175 | – | –
19 | c1ccc2oc(-c3ccc(OCCCCNc4c5c(nc6ccccc46)CCCC5)cc3)cc2c1 | 201 | 46.3 | 238 | – | –
